Measured values: patent publication US4568490A, “Aminopropylaminobleomycin derivatives and process for preparation thereof” (Zaidan Hojin Biseibutsu Kagaku Kenkyu Kai, priority 1981, dated 1986)

Columns and labels:
ICR mice = assay: Pulmonary toxicity (pulmonary fibrosis) in mice, intratracheal instillation; assay type: in vivo; conditions: 16 μg/50 μl/mouse intratracheally, sacrificed 4 weeks after instillation; for Grade: total score of pulmonary fibrosis/total number of samples: score 0-6 points
Protocol: Male 15 weeks old ICR mice were used. Sixteen μg/50 μl/mouse of each test sample was intratracheally instilled. The mice were sacrificed 4 weeks after instillation to examine the incidence and grade of pulmonary fibrosis. The evaluation was made by comparing the number of administered mice suffering from pulmonary fibrosis and the grade of the disease.
(§1) In Tables 4A and 4B, the grade was numerically rated as follows:
(§2) 1 point: Accumulation of exudate in pulmonary alveoli and fibrosis-like change in alveolar septum.
(§3) 2 points: Fibrosis in several areas.
(§4) 4 points: Scattered fibrosis.
(§5) 6 points: Fibrosis in more than two-thirds of the total area.

[1] = test system: Mycobacterium smegmatis ATCC 607; assay: Antimicrobial activity, agar plate-cylinder method; assay type: cell-based; conditions: Cu-free form; bleomycin A2 (Cu-free form) standard assumed 1,000 mcg/mg
Protocol: (§6) The activity was assayed against the above test microorganisms by the method of agar plate-cylinder, assuming the potency of bleomycin A2 (Cu-free form), used as standard, to be 1,000 mcg/mg.

ICR strain mice = assay: Pulmonary toxicity (pulmonary fibrosis) in mice, intraperitoneal injection; assay type: in vivo; conditions: 5 mg/kg i.p. once a day for 10 days; for Grade of pulmonary fibrosis, % / Incidence of pulmonary fibrosis, % / Incidence: number of mice suffering from pulmonary fibrosis / Grade: total score of pulmonary fibrosis/total number of test animal: autopsy after 5 weeks; for Incidence: number of mice suffering from pulmonary fibrosis: affected/total mice; for Grade: total score of pulmonary fibrosis/total number of test animal: score 0-6 points; for Grade of pulmonary fibrosis, Ratio / Incidence of pulmonary fibrosis, Ratio: reference of the ratio not stated
Protocol: (3) Pulmonary toxicity (pulmonary fibrosis) in mice.
ICR strain mice (male; 15 weeks old; 9 mice per group) were used. Each mouse was administered with a daily dose of 5 mg/kg of the test sample by intraperitoneal injection, once a day, for 10 consecutive days. After completion of the predetermined administration, the mice were kept for 5 weeks under observation, then slaughtered, and autopsied to examine the incidence and grade of pulmonary fibrosis. The evaluation was made by comparing the number of administered mice suffering from pulmonary fibrosis and the grade of the disease.
as §1, §2, §3, §4, §5

Bacillus subtilis = assay: Antimicrobial activity, agar plate-cylinder method; assay type: cell-based; conditions: Cu-free form; bleomycin A2 (Cu-free form) standard assumed 1,000 mcg/mg
Protocol: (1) Antimicrobial activity against Mycobacterium smegmatis ATCC 697 and Bacillus subtilis.
as §6

Hela S3 cells = assay: Growth inhibitory activity against Hela S3 cells; assay type: cell-based; conditions: Cu-free form; Hela S3, 3 days incubation with compound
Protocol: The percentage growth inhibition was calculated using the equation: […] wherein A is the ultimate number of cells on the third day from the addition of a test sample, B is the ultimate number of cells in the control (without the addition of test sample), and C is the number of cells on the day of addition of the test sample.

[2] = test system: Lymphocytic leukemia P-388; assay: In vivo antitumor activity, murine lymphocytic leukemia P-388; conditions: BDF1-SLC mice, i.p. transplant, once daily for 9 days, 30 days observation; T/C more than 130 effective
Protocol: The following data with respect to the testing of a group of the presently claimed substances in vivo according to a standard test method involving murine lymphocytic leukemia P-388 is presented to lend further assurance as to the utility of the compounds as inhibitors of mammalian tumors.
Lymphocytic leukemia P-388 cells (1×10^5 /0.2 ml) were transplanted intraperitoneally into male BDF1 -SLC mice (5 mice/group). Each of the compounds of this invention was diluted with physiological saline to various concentrations. Each dilution was administered at a dose of 0.1 ml/10 g of body weight once daily for 9 days, starting on the day after the day of the transplantation. The mice of the control group were administered physiological saline.
The average number of days that the group receiving the compound of this invention survived was calculated. The figure obtained was divided by the average number of survival days for the control group, and was multiplied by 100 (T/C (%)).
T/C value more than 130 was considered to be effective.

Row | Structure (SMILES) | Grade of pulmonary fibrosis, % (ICR mice) | Incidence of pulmonary fibrosis, % (ICR mice) | Incidence: number of mice with pulmonary fibrosis/number of mice (ICR mice) | Grade: total score of pulmonary fibrosis/total number of samples (ICR mice) | Antimicrobial potency of Cu--free compound, against Mycobacterium smegmatis ATCC 607 [1] | Grade of pulmonary fibrosis, % (ICR strain mice) | Incidence of pulmonary fibrosis, % (ICR strain mice) | Incidence: number of mice suffering from pulmonary fibrosis (ICR strain mice) | Grade: total score of pulmonary fibrosis/total number of test animal (ICR strain mice) | Grade of pulmonary fibrosis, Ratio (ICR strain mice) | Incidence of pulmonary fibrosis, Ratio (ICR strain mice) | Antimicrobial potency of Cu--free compound, against Bacillus subtilis (Bacillus subtilis) | 50% growth inhibition concentration (ID50) of Cu--free compound against cultured Hela cell (Hela S3 cells) | Max. T/C on Mouse Lymphocytic Leukemia P 388 [2]
1 | Cc1c(N)nc(C(CC(N)=O)NCC(N)C(N)=O)nc1C(=O)NC(C(=O)NC(C)C(O)C(C)C(=O)NC(C(=O)NCCc1nc(-c2nc(C(=O)NCCCN(C)CCCNCc3ccc(Cl)c(Cl)c3)cs2)cs1)C(C)O)C(OC1OC(CO)C(O)C(O)C1OC1OC(CO)C(O)C(OC(N)=O)C1O)c1cnc[nH]1 (centres unmarked) [compound 7, 3-{N--Methyl-N--[3'-(m,p-dichlorobenzylamino)propyl]amino}propylaminoBLM] | 13% | 30% | 3/10 | 4/30 | 10601 mcg potency per mg | 4% | 11% | 1/9 | 1/27 | 0.05 | 0.18 | 4263 mcg potency per mg | 0.82 µg/mL | –
2 | Cc1c(N)nc(C(CC(N)=O)NCC(N)C(N)=O)nc1C(=O)NC(C(=O)NC(C)C(O)C(C)C(=O)NC(C(=O)NCCc1nc(-c2nc(C(=O)NCCCN(C)CCCNCc3c4ccccc4cc4ccccc34)cs2)cs1)C(C)O)C(OC1OC(CO)C(O)C(O)C1OC1OC(CO)C(O)C(OC(N)=O)C1O)c1cnc[nH]1 (centres unmarked) [compound 21, 3-{N--Methyl-N--[3'-(9-anthramethylamino)propyl]amino}propylaminoBLM] | – | – | – | – | 13250 mcg potency per mg | – | – | – | – | – | – | 4504 mcg potency per mg | 0.80 µg/mL | 148%
3 | Cc1c(N)nc(C(CC(N)=O)NCC(N)C(N)=O)nc1C(=O)NC(C(=O)NC(C)C(O)C(C)C(=O)NC(C(=O)NCCc1nc(-c2nc(C(=O)NCCCN(C)CCCNC(C)c3ccc(Cl)cc3)cs2)cs1)C(C)O)C(OC1OC(CO)C(O)C(O)C1OC1OC(CO)C(O)C(OC(N)=O)C1O)c1cnc[nH]1 (centres unmarked) [compound 14, 3-{N--Methyl-N--[3'-(1"-p-chlorophenylethylamino)propyl]amino}propylaminoBLM] | 24% | 57% | 4/7 | 5/21 | 16959 mcg potency per mg | 11% | 22% | 2/9 | 3/27 | 0.13 | 0.35 | 5459 mcg potency per mg | 0.52 µg/mL | –
4 | Cc1c(N)nc(C(CC(N)=O)NCC(N)C(N)=O)nc1C(=O)NC(C(=O)NC(C)C(O)C(C)C(=O)NC(C(=O)NCCc1nc(-c2nc(C(=O)NCCCN(C)CCCNCC(c3ccccc3)c3ccccc3)cs2)cs1)C(C)O)C(OC1OC(CO)C(O)C(O)C1OC1OC(CO)C(O)C(OC(N)=O)C1O)c1cnc[nH]1 (centres unmarked) [compound 17, 3-{N--Methyl-N--[3'-(2",2"-diphenylethylamino)propyl]amino}propylaminoBLM] | 7% | 22% | 2/9 | 2/27 | 21084 mcg potency per mg | 7% | 20% | 1/5 | 1/15 | 0.08 | 0.32 | 3554 mcg potency per mg | 1.00 µg/mL | –
5 | Cc1c(N)nc(C(CC(N)=O)NCC(N)C(N)=O)nc1C(=O)NC(C(=O)NC(C)C(O)C(C)C(=O)NC(C(=O)NCCc1nc(-c2nc(C(=O)NCCC[N+](C)(C)CCCNCC3CCCCCCC3)cs2)cs1)C(C)O)C(OC1OC(CO)C(O)C(O)C1OC1OC(CO)C(O)C(OC(N)=O)C1O)c1cnc[nH]1 (centres unmarked) [compound 36, 3-{N,N--Dimethyl-N--[3'-(cyclooctylmethylamino)propyl]amino}propylaminoBLM] | – | – | – | – | 21840 mcg potency per mg | – | – | – | – | – | – | 20000 mcg potency per mg | 0.29 µg/mL | 150%
6 | COc1ccc(CNCCCN(C)CCCNC(=O)c2csc(-c3csc(CCNC(=O)C(NC(=O)C(C)C(O)C(C)NC(=O)C(NC(=O)c4nc(C(CC(N)=O)NCC(N)C(N)=O)nc(N)c4C)C(OC4OC(CO)C(O)C(O)C4OC4OC(CO)C(O)C(OC(N)=O)C4O)c4cnc[nH]4)C(C)O)n3)n2)c(OC)c1 (centres unmarked) [compound 13, 3-{N--Methyl-N--[3'-(o,p-dimethoxybenzylamino)propyl]amino}propylaminoBLM] | 15% | 22% | 2/9 | 4/27 | 5351 mcg potency per mg | 11% | 33% | 2/6 | 2/18 | 0.13 | 0.53 | 5312 mcg potency per mg | 1.30 µg/mL | –
7 | Cc1c(N)nc(C(CC(N)=O)NCC(N)C(N)=O)nc1C(=O)NC(C(=O)NC(C)C(O)C(C)C(=O)NC(C(=O)NCCc1nc(-c2nc(C(=O)NCCCN(CCCN(Cc3ccccc3)Cc3ccccc3)Cc3ccccc3)cs2)cs1)C(C)O)C(OC1OC(CO)C(O)C(O)C1OC1OC(CO)C(O)C(OC(N)=O)C1O)c1cnc[nH]1 (centres unmarked) [Compound No. 40, 3-{N--benzyl-N--[3'-(dibenzylamino)propyl]amino}propylaminoBLM] | – | – | – | – | 4450 mcg potency per mg | – | – | – | – | – | – | 479 mcg potency per mg | 1.90 µg/mL | 154%
8 | Cc1c(N)nc(C(CC(N)=O)NCC(N)C(N)=O)nc1C(=O)NC(C(=O)NC(C)C(O)C(C)C(=O)NC(C(=O)NCCc1nc(-c2nc(C(=O)NCCCN(C)CCCNCc3ccc(Cl)cc3Cl)cs2)cs1)C(C)O)C(OC1OC(CO)C(O)C(O)C1OC1OC(CO)C(O)C(OC(N)=O)C1O)c1cnc[nH]1 (centres unmarked) [compound 8, 3-{N--Methyl-N--[3'-(o,p-dichlorobenzylamino)propyl]amino}propylaminoBLM] | 25% | 25% | 2/8 | 6/24 | 13013 mcg potency per mg | 7% | 11% | 1/9 | 2/27 | 0.08 | 0.18 | 2940 mcg potency per mg | 1.05 µg/mL | –
